This note sets out measurements from patent US10023615B2, “Efficient transport into white blood cells” (priority 2008, dated 2018).

Data set [1] has as its system noise trauma (120 dB at 6 kHz). Briefly: Treatment of noise trauma, auditory brainstem response. It is filed as in vivo, guinea pigs. Conditions: 100 μM in hyaluronic acid gel on round window membrane; before or after noise trauma. As to the method:
19. […] Untreated ears served as control. Hearing threshold shifts are evaluated by auditory brainstem response measurements 20 minutes after noise trauma (temporary threshold shift, TTS) and 15 days following the trauma (permanent threshold shift, PTS).

The test system of the next data set is TC-3 cells. Briefly: Inhibition of IL-1 induced pancreatic beta-cell death. Conditions: 1 μM single addition, IL-1 10 ng/ml, two days. The format is cell-based. As to the method:
Inhibition of IL-1 induced pancreatic beta-cell death by the D-TAT-IB1(s) peptide was analyzed. TC-3 cells were incubated for 30 minutes with one single addition of the indicated peptides (1, μM), then IL-1 (10 ng/ml) was added.
Apoptotic cells were then counted after two days of incubation with IL-1 by use of Propidium Iodide and Hoechst 33342 nuclear staining. A minimum of 1,000 cells were counted for each experiment.
Long term inhibition of IL-1P induced cell-death by the D-TAT-IB1 peptide was also analyzed. TC-3 cells were incubated for 30 minutes with one single addition of the indicated peptides (1 μM), then IL-1 (10 ng/ml) was added, followed by addition of the cytokine every two days. Apoptotic cells were then counted after 15 days of incubation with IL-1 by use of propidium iodide and Hoechst 33342 nuclear staining. […] A minimum of 1.000 cells were counted for each experiment.

Data set [2] has as its system bleomycin induced lung inflammation. Briefly: Bleomycin (BLM) induced acute lung inflammation. It is filed as in vivo, C57BL/6 mice. Particulars: for cell recruitment in bronchoalveolar lavage space: single dose, 1 day. The text has this: (§1) In order to determine the activity of the exemplary all-D retro-inverso IB(s) peptide XG-102 (SEQ ID NO: 233) in the treatment of Chronic Obstructive Pulmonary Disease (COPD) XG-102 (SEQ ID NO: 233) is used in an animal model of Bleomycin induced acute lung inflammation and fibrosis. The protocol of bleomycin induced inflammation and fibrosis has been described before in the literature. The aim of the Experiment was to investigate the effect of XG-102 (SEQ ID NO: 233) by subcutaneous (s.c.) route on neutrophil recruitment in broncho alveolar lavage (BAL) and lung in bleomycin induced inflammation and fibrosis: • at 1 day after a single bleomycin administration (10 mg/kg) • and at day 10 with the development of fibrosis
(§2) 1) Method and Experimental Approach • The test compound XG-102 (SEQ ID NO: 233) at two doses and vehicle control were given s.c. with a single intranasal administration of bleomycin and mice were analyzed after 1 and 10 days. The animals used in the model were 10 C57BL/6 mice (8 weeks old) per group. The experimental groups included vehicle, 0.001 mg/kg XG-102 (SEQ ID NO: 233) and 0.1 mg/kg XG-102 (SEQ ID NO: 233), and the treatment consisted of repeated sub-cutaneous administration of XG-102 (SEQ ID NO: 233), prior to bleomycin administration then every 3 days. Acute lung inflammation at 24 h was monitored by BAL lavage, cytology, cell counts, and lung myeloperoxidase activity. The effect of the compound was compared with vehicle controls. Lung fibrosis was assessed histologically using hematoxylin and eosin staining at day 10 after the single dose of bleomycin.
1.1) Bleomycin Administration • Bleomycin sulfate in saline (10 mg/kg body weight) from Bellon Laboratories (Montrouge, France) or saline were given through the airways by nasal instillation in a volume of 40 μL under light ketamine-xylasine anesthesia. The groups for Bleomycin administration for both bleomycin induced inflammation and fibrosis included: Vehicle, 0.001 mg/kg XG-102 (SEQ ID NO: 233) and 0.1 mg/kg XG-102 (SEQ ID NO: 233). The route for bleomycin induced inflammation was subcutaneous (s.c.) route, and administration occurred as a single dose. The route for bleomycin induced fibrosis was subcutaneous (s.c.) route, and administration occurred 3 times in 10 days.
1.2) Bronchoalveolar Lavage Fluid (BALE) • After incision of the trachea, a plastic cannula was inserted and airspaces were washed using 0.3 ml of PBS solution, heated to 37° C. The samples collected were dispatched in 2 fractions: the first one (1 ml corresponding to the 2 first lavages) was used for mediator measurement and the second one for the cell determination (4 ml). The first fraction was centrifuged (600 g for 10 min) and supernatant was fractionated and kept at −80° C. until mediator determination. The cell pellet was then resuspended in 0.4 ml sterile NaCl, 0,9%, and pooled with the second fraction and was used for cell counts.
1.3) Lung Homogenization • After BAL the whole lung was removed and placed inside a microtube (Lysing matrix D, Q Bio Gene, Illkrich, France) with 1 ml of PBS, total lung tissue extract was prepared using a Fastprep® system (FP120, Q Bio Gene, Illkrich, France), the extract was then centrifuged and the supernatant stored at −80° C. before mediator measurement and collagen assay with Sircol Collagen Assay (France Biochem Division, France).
1.4) Cell Count and Determination • Total cell count was determined in BAL fluid using a Malassez hemocytometer. Differential cell counts were performed on cytospin preparations (Cytospin 3, Thermo Shandon) after staining with MGG Diff-quick (Dade Behring AG). Differential cell counts were made on 200 cells using standard morphological criteria.
1.5) TNF Measurement • TNF level in BALF was determined using ELISA assay kits (Mouse DuoSet, R&D system, Minneapolis, USA) according to manufacturer's instructions. Results are reported as pg/ml. […]

Data set [3] in a line: Tissue distribution of C14 radiolabeled D-TAT-tagged peptides. The format is in vivo, mouse. Particulars: 1 mg/kg s.c., i.v., i.p.; 72 hours after injection. On the procedure:
Mice were treated via three different routes of administration (s.c., i.v., i.p.) with radiolabeled peptides with C^14 (1 mg/kg). Animals were sacrificed 72 hours after injection and processed for immunoradiography. […] This illustrates that the transporter D-TAT is responsible for the tissue distribution.

The subject of data set [4] is bleomycin induced lung fibrosis. Briefly: Bleomycin (BLM) induced lung fibrosis. Conditions: for cell recruitment in bronchoalveolar lavage space: 3 times in 10 days. The format is in vivo, C57BL/6 mice.
From the text: as §1, §2
1.1) Bleomycin Administration • Bleomycin sulfate in saline (10 mg/kg body weight) from Bellon Laboratories (Montrouge, France) or saline were given through the airways by nasal instillation in a volume of 40 μL under light ketamine-xylasine anesthesia. […]
1.4) Cell Count and Determination • Total cell count was determined in BAL fluid using a Malassez hemocytometer. […]

Entries after “also recorded” stand apart in the source; their conditions may differ. Ends that are not written are not given here.

For “dqsrpvqpflnIttprkprpprrrqrrkkrg (DQSRPVQPFLNLTTPRKPRPPRRRQRRKKRG; not fully specified (some residues); printed as dqsrpvqpflnIttprkprpprrrqrrkkrg) [XG-102]”, in data set [1], the “permanent hearing loss (permanent threshold shift)” value is “protected against permanent hearing loss even if applied after exposure to excessive noise”. In addition, the IL-1 induced apoptosis entry in the data set with TC-3 cells is given as “decreased IL-1 induced apoptosis to a similar extent as L-TAT-IB peptides”. In addition, the “cell recruitment in bronchoalveolar lavage space” value was “has no effect on neutrophil recruitment or other cell types into the bronchoalveolar space” in data set [2] (0.001 mg/kg s.c.); “reduces significantly the neutrophil recruitment and the number of total cells recruited; also recorded: decreases the neutrophil and total cell recruitment into the bronchoalveolar space” in data set [2] (0.1 mg/kg s.c.); “reduced significantly the lymphocyte recruitment and the number of total cells recruited; also recorded: decreases the Bleomycin-induced later inflammation” in data set [4] (0.001 mg/kg s.c.); “had no effect” in data set [4] (0.1 mg/kg s.c.). In data set [2] (MPO not significantly induced after bleomycin), the “MPO levels in the lung” value is given as “no effect on MPO levels in the lung; also recorded: no effect on the MPO levels in the lung”. Further, the “TNF level in BALF” value in data set [2] (TNF levels very low after BLM) is on record as “a trend to reduction of the TNF level in BALF; also recorded: induces a trend to decrease the TNF level”. In addition, in data set [2] (mouse, in vivo), the “Bleomycin-induced inflammation (conclusion)” value was “reduces the Bleomycin-induced inflammation”. Also, the “histology: inflammatory cell accumulation” value in data set [2] (peribronchial space) was “a decrease of the inflammatory cell accumulation in the peribronchial space”. Further, the “tissue distribution (accumulation)” value in data set [3] is “in the liver, spleen, and bone marrow predominantly”. Further, in data set [4] (0.001 mg/kg, day 10), the “histology: inflammatory cells accumulation, fibrotic areas, loss of lung architecture” value is “A decrease of these parameters was observed; also recorded: attenuates the Bleomycin-induced fibrosis”.
